The results in this text go back to patent US10202412B2, “β-D-2′-deoxy-2′-substituted-4′-substituted-2-substituted-N6-substituted-6-aminopurinenucleotides for the treatment of paramyxovirus and orthomyxovirus infections” (Atea Pharmaceuticals, Inc., priority 2016, dated 2019).

Structures are written as SMILES.

Holding throughout (format): cell-based
Data set [1] relates to respiratory syncytial virus A2 (ATCC VR-1540). In words: Cytopathic effect assay with RSV A2 in MA-104 cells. The note with it: human respiratory syncytial virus, MA104, CPE inhibition, neutral red. The procedure:
(§1) Test compounds were dissolved in DMSO and then prepared in eight half-log dilutions in MEM medium with 50 μg/mL gentamicin and 2% FBS (MA-104 cells only). Each dilution was added to 5 wells of a 96-well plate with 80-100% confluent cells (either MA-104 cells or HEp-2 cells). Three wells of each dilution were infected with respiratory syncytial virus A2 (ATCC VR-1540) and two wells remained uninfected as toxicity controls. After maximum cytopathic effect (CPE) was observed microscopically in untreated virus control wells, plates were stained with neutral red dye for approximately 2 hours, then supernatant dye was removed and the incorporated dye was extracted in 50:50 Sorensen citrate buffer/ethanol and read on a spectrophotometer. Optical density values were normalized based on cell and virus controls, then the concentration of test compound required to inhibit CPE by 50% (EC50) was calculated by regression analysis. The reported EC50 value is the mean of at least two experiments. The concentration of compound that caused 50% CPE in the absence of virus was similarly calculated to determine cytotoxicity (CC50).
(Protection from cytopathic effect is a common read-out in antiviral testing.)

Data set [2] concerns Differentiated normal human bronchial epithelial (dNHBE) cells. As to the kind of experiment: dNHBE assay: toxicity evaluated microscopically. Set-up: unit not given here. Here is the method: (§2) Differentiated normal human bronchial epithelial (dNHBE) cells were grown on 6 mm mesh disks in transwell inserts to approximately 1.2×10^6 cells/disk and disks were transferred to individual wells of a 6-well plate. 1 mL of proprietary culture medium was added to the basolateral side of the cells and the apical side was exposed to a humidified 95% air/5% CO2 environment. Cells were cultured at 37° C. for one day and then the mucin layer was removed from the apical side of the cells by repeated (3×) washing with 500 μL 30 mM HEPES buffered saline solution and culture medium on the basal side was replenished.
(§3) Various concentrations of test compounds in medium were applied in duplicate to the apical (140 μL) and basal sides (1 mL) for a 1 hour pre-treatment, followed by addition of 140 μL of virus inoculum to each cell insert on the apical side. The viral inoculum and treatments were removed after 2 hours. Control cells were treated with placebo (culture medium only). Following infection, the apical medium was removed and the basal side was replaced with fresh compound in medium. The cells were maintained at the air-liquid interface, and cell culture medium on the basal side was replaced daily with fresh medium containing test compound. After 4 days, the liquid was removed from the basal side and discarded and virus released into the apical compartment was harvested by the addition of 500 μL of culture medium. The medium was thoroughly mixed, then removed, diluted 1:1 with 40% sucrose and stored at ≤−80° C.
(§4) Concentrations of test compounds that reduced virus yield by 1 log10 (90% effective concentration; EC90) were calculated by regression analysis. The reported EC90 value is the mean of at least two experiments. Potential toxicity of the test compounds was evaluated microscopically.

For a further data set, the system named is HEp-2 cells. As to the kind of experiment: Cytotoxicity in uninfected HEp-2 cells, neutral red. The note with it: absence of virus. Set-up: unit not given here. The procedure:
as §1

For data set [3], the system named is respiratory syncytial virus A2 (ATCC VR-1540). As to the kind of experiment: Cytopathic effect assay with RSV A2 in HEp-2 cells. The note with it: human respiratory syncytial virus; RSV in HEp-2 cells, CPE inhibition, neutral red. The procedure:
as §1

Data set [4] has as its system Respiratory syncytial virus (RSV) type A, strain A2 (ATCC VR-1540). As to the kind of experiment: dNHBE assay: RSV virus yield reduction (EC90). Conditions: RSV (A2) in dNHBE cells, concentration reducing virus yield by 1 log10, mean of at least two experiments. The procedure:
as §2
Respiratory syncytial virus (RSV) type A, strain A2 (ATCC VR-1540), previously passaged in MA-104 cells to make working stock cultures, was diluted 1/10 in medium before infection, using a multiplicity of infection (MOI) of ≤0.03 CCID50 per cell.
as §3
To determine the virus titer from each treated cell culture, MA-104 cells were seeded in 96-well plates and grown overnight (37° C.) to confluence. Samples containing virus were diluted in 10-fold increments in infection medium and 200 μL of each dilution transferred into respective wells of a 96-well microtiter plate. Four microwells were used for each dilution to determine 50% viral endpoints. After 7 days of incubation, each well was scored positive for virus if any cytopathic effect was observed as compared with the uninfected control. The virus dose that was able to infect 50% of the cell cultures (CCID50 per 0.1 mL) was calculated by the Reed-Muench method. This was repeated in duplicate for each test sample, so that values reported are an average of 2 independent CCID5o determinations. Untreated, uninfected cell controls were tested as negative controls. Statistical differences in the titers were evaluated with a one-way analysis of variance (ANOVA) followed by Dunnett's multiple comparisons test compared with the untreated virus controls.
as §4

For data set [5], the system named is human bone marrow progenitor cells (BFU-E). As to the kind of experiment: Human bone marrow progenitor cell assay, BFU-E. The note with it: Homo sapiens, 336 h; BFU-E-specific culture, 14-day incubation, colony counts; read-out: Bone Marrow Stem Cell IC50 BFU-E. Here is the method:
(§5) Select compounds were tested in an in vitro selectivity study with human bone marrow progenitor cells. Fresh human bone marrow progenitor cells (Invitrogen) suspended in either BFU-E or GM-CSF-specific culture medium were added, at 10^5 cells/well, to triplicate serial dilutions of TA in 6-well plates. After 14-day incubations, colony counts were used to determine […] values. BFU-E colonies were confirmed using the benzidene technique. No cytotoxicity was observed from any of the tested compounds.

The next data set deals with iPS cardiomyocytes. As to the kind of experiment: iPS cardiomyocyte assay (XTT viability). The note with it: 72 h, 3 days incubation, XTT staining. The procedure:
Select compounds were tested in an in vitro selectivity study with iPS cardiomyocytes. iPS cardiomyocytes (Cellular Dynamics) were seeded in microliter plates at 1.5×10^4 cells per well. After 48-hr incubation, cells were washed and maintenance medium containing 30 serially diluted TA was added in triplicate. After incubating for an additional 3 days, cellviability was measured by staining with XTT and CC50 values were calculated. No cytotoxicity was observed from any of the tested compounds.

Data set [6] concerns human bone marrow progenitor cells (CFU-GM). In words: Human bone marrow progenitor cell assay, CFU-GM (GM-CSF-specific culture). The note with it: Homo sapiens, CFU-GM, 336 h, 14-day incubation, colony counts, read-out: Bone Marrow Stem Cell IC50 CFU-GM. The procedure: as §5
Setting [7] is: human respiratory syncytial virus.

As for `Nc1ccn([C@@H]2O[C@@](CO)(CCl)C(O)[C@H]2F)c(=O)n1` (stereo in doubt) [W], the EC50 in data set [1] is 9.6 µM; in data set [3], 0.6 µM. The compound also came in with a Visual toxicity in data set [2] of more than 338. In addition, the TC50 in the data set on HEp-2 cells is more than 100. Besides, in data set [4] (setting [7]), the EC90 is 0.58 µM.
On to `CNc1nc(F)nc2c1ncn2[C@@H]1O[C@](C)(CO[P@@](=O)(N[C@@H](C)C(=O)OC(C)C)Oc2ccccc2)[C@@H](O)[C@H]1F` [AH, (S)-Isopropyl 2-(((S)-(((2R,3R,4R,5R)-5-(6-(methylamino)-2-fluoro-9H-purin-9-yl)-4-fluoro-3-hydroxy-2-methyltetrahydrofuran-2-yl)methoxy)(phenoxy)phosphoryl)amino) propanoate], for which the Visual toxicity in data set [2] was more than 1.7. Further, the IC50 (in data set [5]; with iPS cardiomyocytes; in data set [6]) was more than 100 µM in each case. The EC90 in data set [4] (setting [7]) was 0.12 µM.
Take `CNc1nc(N)nc2c1ncn2[C@@H]1O[C@](CCl)(CO[P@@](=O)(N[C@@H](C)C(=O)OC(C)C)Oc2ccccc2)[C@@H](O)[C@H]1F` [AI, (S)-Isopropyl 2-(((S)-(((2R,3R,4R,5R)-5-(2-amino-6-(methylamino)-9H-purin-9-yl)-2-(chloromethyl)-4-fluoro-3-hydroxytetrahydrofuran-2-yl)methoxy)(phenoxy)phosphoryl)amino) propanoate]: in data set [2], the Visual toxicity is more than 1.6. Also, the IC50 (in data set [5]; with iPS cardiomyocytes; in data set [6]) was more than 100 µM each time. In data set [4] (setting [7]), the EC90 amounted to 0.13 µM.
The compound `CNc1nc(F)nc2c1ncn2[C@@H]1O[C@](CCl)(CO[P@@](=O)(N[C@@H](C)C(=O)OC(C)C)Oc2ccccc2)[C@@H](O)[C@@H]1F` [AQ, (S)-Isopropyl 2-(((S)-(((2R,3R,4S,5R)-5-(6-(methylamino)-2-fluoro-9H-purin-9-yl)-2-(chloromethyl)-4-fluoro-3-hydroxytetrahydrofuran-2-yl)methoxy)(phenoxy)phosphoryl)amino) propanoate] had a Visual toxicity in data set [2] of more than 1.6. Moreover, the IC50 (in data set [5]; in the data set on iPS cardiomyocytes; in data set [6]) was more than 100 µM throughout. The EC90 in data set [4] (setting [7]) amounted to 0.18 µM.
In turn, `CNc1nc(N)nc2c1ncn2[C@@H]1O[C@](C)(CO[P@@](=O)(N[C@@H](C)C(=O)OC(C)C)Oc2ccccc2)[C@@H](O)[C@H]1F` [Compound AB, (S)-Isopropyl 2-(((S)-(((2R,3R,4R,5R)-5-(2-amino-6-(methylamino)-9H-purin-9-yl)-4-fluoro-3-hydroxy-2-methyltetrahydrofuran-2-yl)methoxy)(phenoxy)phosphoryl)amino) propanoate] came in with a Visual toxicity in data set [2] of more than 17. Further, the IC50 (in data set [5]; in the data set with iPS cardiomyocytes; in data set [6]) was more than 100 µM each time. In data set [4], this compound registered an EC90 of 0.052 µM.
For the compound `CNc1nc(N)nc2c1ncn2[C@@H]1O[C@](C)(CO)[C@@H](O)[C@H]1F` [Compound C, (2R,3R,4R,5R)-5-(2-Amino-6-(methylamino)-9H-purin-9-yl)-4-fluoro-2-(hydroxymethyl)-2-methyltetrahydrofuran-3-ol], in data set [2], the Visual toxicity is more than 320. For the same compound, the TC50 in the data set on HEp-2 cells is reported as more than 100. For the same compound, in data set [3], the EC50 was more than 100 µM. Besides, the EC90 in data set [4] (setting [7]) amounted to 3.2 µM.
The matching figures for `CNc1nc(N)nc2c1ncn2[C@@H]1O[C@](C)(COP(=O)(N[C@@H](C)C(=O)OC(C)C)Oc2ccccc2)[C@@H](O)[C@H]1F` (some centres unmarked) [Compound D]: more than 172, more than 100, more than 100 µM and 1.7 µM.
Take `CC[C@]1(CO)O[C@@H](n2cnc3c(N(C)C)nc(N)nc32)[C@H](F)[C@@H]1O` [Compound O, (2R,3R,4R,5R)-5-(2-Amino-6-(dimethylamino)-9H-purin-9-yl)-2-ethyl-4-fluoro-2-(hydroxymethyl)tetrahydrofuran-3-ol]: the EC50 was more than 293 µM in data set [1] and more than 100 µM in data set [3]. Besides, in data set [2], the Visual toxicity is reported as more than 293. In the data set with HEp-2 cells, this compound yielded a TC50 of more than 100. The EC90 in data set [4] (setting [7]) was more than 293 µM.

For orientation: EC50 means the concentration at which the effect is half-maximal. The term EC90 denotes the concentration at which the effect reaches the 90% level. Broadly, the IC50 is the midpoint of a concentration-inhibition curve.
